Peptide text beside a SMILES is read from it.
Conditions: Cohort 4: 0.5 mg/kg IV 2-hr infusion (N = 6)
From the text: All subjects who met eligibility criteria were confined to the clinical research unit from […] through Day 3. At admission, physical examination, vital signs, 12 lead ECG and weight were obtained, medical and medication history were updated if necessary, safety blood tests (hematology and chemistry), urinalysis, urine drug screen and an alcohol breath test were repeated and a urine pregnancy test was done for women of childbearing potential.
At each dose level, there were 2 sentinel subjects, (1 active, 1 placebo), who were dosed at least 48 hours in advance of the other subjects in their respective group. Following review of safety data, including physical examination, vital signs, and review of adverse events from the first 2 subjects, enrolment in the cohort continued.
A 12-lead ECG was performed on Day 1, within 60 minutes of infusion start (in triplicate), mid-way through the infusion, at the completion of the infusion, 30 minutes after completion of the infusion and at various timepoints following the end of the infusion.
Vital signs were recorded within 60 minutes pre-dose, at the mid-point of the infusion and post dose vitals were assessed at completion of the infusion, 0.5, 1, 2, 3, 4, 6, 9, 12, 24 and 48 hours post dose, after at least 3 minutes of rest in supine position.
Subjects returned to the study center 7 days after dosing, for the termination visit. A full physical examination, vital signs and weight were obtained, concomitant medications were updated if necessary, safety blood specimens (haematology and chemistry, PT and aPTT) and urine were collected for urinalysis and urine drug screening. A serum pregnancy test was done for women of childbearing potential and a 12-lead ECG was performed.
In this study dose limiting toxicity (DLT) was defined as any drug related ≥Grade 3 AEs occurring despite optimal therapeutic interventions (which included but were not limited to allergic/hypersensitivity reactions, dermatological reactions/infusion site reactions, haematological toxicities such as neutropenia, thrombocytopenia and anaemia and clinical chemistry abnormalities) experienced up to Day 7 (Termination Visit).
(§1) All subjects who received any amount of study drug were included in the safety analysis (Safety population).
The study was a double blinded, randomized, placebo-controlled study. The placebo administered was 0.9% sodium chloride.
On Day 1 (day of dosing), subjects were randomly assigned either peptide IV or Placebo IV. At each dose level, there were 2 sentinel subjects, (1 active, 1 placebo), who were dosed at least 48 hours in advance of the other subjects in their respective group. Following review of safety data, including physical examination, vital signs, and review of adverse events from the first 2 subjects, enrolment in the cohort continued. All subjects who met eligibility criteria were confined to the clinical research unit from Day −2 through Day 3. At admission, physical examination, vital signs, 12 lead ECG and weight were obtained, medical and medication history were updated if necessary, safety blood tests (hematology and chemistry), urinalysis, urine drug screen and an alcohol breath test were repeated and a urine pregnancy test was done for women of childbearing potential.
as §1

CC(C)[C@H](NC(=O)[C@H](Cc1c[nH]c2ccccc12)NC(=O)[C@H](CCCNC(=N)N)NC(=O)[C@H](CCCNC(=N)N)NC(=O)[C@@H](NC(=O)[C@@H](NC(=O)[C@H](CCCNC(=N)N)NC(=O)[C@@H](NC(=O)[C@@H](NC(=O)[C@H](CCCNC(=N)N)NC(=O)[C@H](CCCNC(=N)N)NC(=O)[C@H](Cc1c[nH]c2ccccc12)NC(=O)[C@@H](NC(=O)[C@H](CCCNC(=N)N)NC(=O)[C@H](CCCNC(=N)N)NC(=O)[C@@H](NC(=O)[C@H](CCCNC(=N)N)NC(=O)[C@H](CCCNC(=N)N)NC(=O)[C@@H](NC(=O)[C@H](Cc1c[nH]c2ccccc12)NC(=O)[C@H](CCCNC(=N)N)NC(=O)[C@@H](N)CCCNC(=N)N)C(C)C)C(C)C)C(C)C)C(C)C)C(C)C)C(C)C)C(C)C)C(=O)N[C@@H](CCCNC(=N)N)C(=O)N[C@@H](CCCNC(=N)N)C(N)=O [SEQ ID NO: 1] (H-RRWVRRVRRVWRRVVRVVRRWVRR-NH2)
Number of Participants Reporting at least: One Dose-Limiting Toxicity, n (%): 0
Number of Participants Reporting at least: One Related TEAE, n (%): 3 (50.0%)
Number of Participants Reporting at least: One Serious TEAE, n (%): 0
Number of Participants Reporting at least: One TEAE Leading to Study Drug Discontinuation, n (%): 0
Number of Participants Reporting at least: One TEAE with Common Terminology Criteria for Adverse Events (CTCAE) Toxicity ≥ Grade 3, n (%): 0
Number of Participants Reporting at least: One TEAE, n (%): 6 (100%)
One Related TEAE, m: 4
One TEAE, m: 15
Participants With At Least 1 TEAE, n (%): 6 (100%)
Participants With At Least 1 TEAE, occurrences m: 15
Participants With At Least 1 Treatment-Related TEAE, n (%): 3 (50.0%)
Participants With At Least 1 Treatment-Related TEAE, occurrences m: 4
TEAE Severity Grade 1, m: 12
TEAE Severity Grade 1, n (%): 6 (100%)
TEAE Severity Grade 2, m: 3
TEAE Severity Grade 2, n (%): 2 (33.3%)
TEAE by system organ class: Blood and Lymphatic System Disorders, participants n (%): 0
TEAE by system organ class: Gastrointestinal Disorders, occurrences m: 2
TEAE by system organ class: Gastrointestinal Disorders, participants n (%): 1 (16.7%)
TEAE by system organ class: General Disorders and Administration Site Conditions, occurrences m: 2
TEAE by system organ class: General Disorders and Administration Site Conditions, participants n (%): 2 (33.3%)
TEAE by system organ class: Infections and Infestations, occurrences m: 1
TEAE by system organ class: Infections and Infestations, participants n (%): 1 (16.7%)
TEAE by system organ class: Injury, Poisoning, and Procedural Complications, occurrences m: 4
TEAE by system organ class: Injury, Poisoning, and Procedural Complications, participants n (%): 3 (50.0%)
TEAE by system organ class: Musculoskeletal and Connective Tissue Disorders, occurrences m: 2
TEAE by system organ class: Musculoskeletal and Connective Tissue Disorders, participants n (%): 2 (33.3%)
TEAE by system organ class: Nervous System Disorders, occurrences m: 1
TEAE by system organ class: Nervous System Disorders, participants n (%): 1 (16.7%)
TEAE by system organ class: Respiratory, Thoracic, and Mediastinal disorders, participants n (%): 0
TEAE by system organ class: Skin and Subcutaneous Tissue Disorders, occurrences m: 3
TEAE by system organ class: Skin and Subcutaneous Tissue Disorders, participants n (%): 2 (33.3%)
TEAE by system organ class: Vascular Disorders, participants n (%): 0
TEAE severity Grade 1, occurrences m: 12
TEAE severity Grade 1, participants n (%): 6 (100%)
TEAE severity Grade 2, occurrences m: 3
TEAE severity Grade 2, participants n (%): 2 (33.3%)
TEAE severity Grade 3, participants n (%): 0
TEAE severity Grade 4, participants n (%): 0
TEAE severity Grade 5, participants n (%): 0
Treatment-related TEAE: Abdominal distension, occurrences m: 1
Treatment-related TEAE: Abdominal distension, participants n (%): 1 (16.7%)
Treatment-related TEAE: Blood and Lymphatic System Disorders, participants n (%): 0
Treatment-related TEAE: Constipation, participants n (%): 0
Treatment-related TEAE: Diarrhea, occurrences m: 1
Treatment-related TEAE: Diarrhea, participants n (%): 1 (16.7%)
Treatment-related TEAE: Dizziness, participants n (%): 0
Treatment-related TEAE: Feeling hot, participants n (%): 0
Treatment-related TEAE: Gastrointestinal Disorders, occurrences m: 2
Treatment-related TEAE: Gastrointestinal Disorders, participants n (%): 1 (16.7%)
Treatment-related TEAE: General Disorders and Administration Site Conditions, occurrences m: 2
Treatment-related TEAE: General Disorders and Administration Site Conditions, participants n (%): 2 (33.3%)
Treatment-related TEAE: Headache, participants n (%): 0
Treatment-related TEAE: Infusion related reaction, participants n (%): 0
Treatment-related TEAE: Infusion site discomfort, participants n (%): 0
Treatment-related TEAE: Infusion site pain, participants n (%): 0
Treatment-related TEAE: Infusion site reaction, occurrences m: 1
Treatment-related TEAE: Infusion site reaction, participants n (%): 1 (16.7%)
Treatment-related TEAE: Infusion site swelling, participants n (%): 0
Treatment-related TEAE: Injury, Poisoning, and Procedural Complications, participants n (%): 0
Treatment-related TEAE: Macule, participants n (%): 0
Treatment-related TEAE: Musculoskeletal and Connective Tissue Disorders, participants n (%): 0
Treatment-related TEAE: Myalgia, participants n (%): 0
Treatment-related TEAE: Nervous system disorders, participants n (%): 0
Treatment-related TEAE: Oropharyngeal pain, participants n (%): 0
Treatment-related TEAE: Orthostatic hypotension, participants n (%): 0
Treatment-related TEAE: Phlebitis, participants n (%): 0
Treatment-related TEAE: Respiratory, Thoracic, and Mediastinal disorders, participants n (%): 0
